According to patent US20130072385A1, “METHODS FOR DELAYING BUD BREAK BY APPLYING ABA ANALOGS” (priority 2011, published 2013):

What was measured:
[1] = tested on: PF-11 nectarine trees; assay: Fall foliar spray of PF-11 nectarine trees, bud break the following spring; assay type: in vivo; conditions: 10,000 ppm in 0.1% Brij 98, fall foliar application; April 8
Protocol: (§1) A study was conducted to determine the effect of spraying nectarine trees with ABA or ABA analogs in the fall on bud break the following spring. Mature PF-11 nectarine trees were sprayed to drip with surfactant alone or surfactant and ABA or ABA analog on Oct. 19, 2009. Trees were sprayed with approximately 500 ml (20.5 grams ABA analog/acre) applied to each of 6 trees per treatment arranged in a randomized complete block design. The following spring bud break on pre-selected branches was monitored.

[2] = tested on: Concord grape vines; assay: Spring spray of eco-dormant field grown Concord grape vines, bud break; assay type: in vivo, Concord grapevines; conditions: sprayed 2 times in spring
Protocol: A study was conducted to evaluate the effect of spraying eco-dormant Concord grape vines with ABA or ABA analog plus surfactants on bud break. Mature field grown Concord grape vines were sprayed to runoff 2 times in the spring after pruning and before bud swell. Three replicates of 3 vines each were treated with each treatment solution. Treatments were arranged in a randomized complete block design down a single vineyard row, Bud break was monitored by counting the number of broken buds of the distal 5 buds on 4 proximal canes on the middle vine of each 3 vine replicate. Bud break was only very slightly delayed by any of the treatments compared to the water sprayed control (Table 1).

[3] = tested on: Canadice grapevines; assay: Soil drench of potted grapevines near the time of bud break, Canadice; assay type: in vivo
Protocol: (§2) A study was conducted to determine the effect of ABA applied to the soil of potted grapevines near the time of bud break. Eco-dormant bare-root Seyval Blanc and Canadice grapevines were purchased from Concord Nurseries, North Collins, N.Y. Vines were planted in pots of Promix potting mixture and held in a 5° C. dark chamber prior to treatment. Plants were moved from the 5° C. chamber to a greenhouse set to 20° C. night/25° C. day with a 12 hour light and 12 hour dark light cycle to promote bud break. One group of 5 plants was treated with 250 ml of 1000 ppm ABA (250 mg) as a soil drench 2 days after moving the vines to warm conditions. Another group of vines was treated 6 days after warming and another group of 5 plants was treated 10 days after warming. With the Seyval Blanc grapevines one group of 5 plants was treated at all 3 timings 2, 6, and 10 days after warming (750 mg total). Another group of 5 vines was not treated and acted as an untreated control. […]

[4] = tested on: Concord grapevines; assay: Fall soil drench of potted Concord grapevines, bud break the following spring; assay type: in vivo; conditions: 1000 ppm (1000 mg/pot) fall soil drench
Protocol: A study was conducted to determine the effect of application of ABA or ABA analog as a soil drench in the fall on bud break of potted Concord grapevines the following spring. Two year old eco-dormant Concord grapevines were obtained from a Concord Nurseries in the spring. Bare-root vines were planted in 14 liter pots filled with Promix BX (available from Premier Horticulture Inc. Quakertown, Pa.) and grown outside for about 5 months (May October) prior to treatment. Plants received irrigation as needed and fertilized weekly (1 g/L all purpose fertilizer 20-20-20, The Scotts Company, Marysville, Ohio). Uniform plants were selected for the study. A total of 1000 mL of water or chemical solution was applied to the soil of each plant.
After chemical treatment, the ten replicate plants per treatment were arranged in a randomized complete block experimental design. The potted vines were surrounded by bark chips the depth of the soil in the pot to insulate the roots and prevent cold damage. The plants became dormant for the winter. In the following spring the vines were pruned to 5 buds per vine before bud break and bud break was monitored over time (Table 4). The buds were rated for bud break periodically on a scale from 1 for no growth to 6 for three or more leaves showing
Potted Concord grapevines were treated with 1000 mL water, solution containing 1000 mg ABA or solution containing 100 mg PBI-429. The dose of RBI-429 was used at one-tenth of ABA dose based on the preliminary results.

[5] = tested on: Seyval Blanc grapevines; assay: Soil drench of potted grapevines near the time of bud break, Seyval Blanc; assay type: in vivo
Protocol: as §2

[6] = tested on: PF-11 nectarine trees; assay: Fall foliar spray of PF-11 nectarine trees, fruit number per tree the following spring; assay type: in vivo; conditions: 10,000 ppm in 0.1% Brij 98, fall foliar application; June 10
Protocol: as §1

[7] = 1000 ppm soil drench 2 days after warming, evaluated 13 days after warming
[8] = 1000 ppm soil drench 2 days after warming, evaluated 14 days after warming
[9] = 1000 ppm soil drench 2 days after warming, evaluated 15 days after warming
[10] = 1000 ppm soil drench 2 days after warming, evaluated 16 days after warming
[11] = 1000 ppm soil drench 6 days after warming, evaluated 13 days after warming
[12] = 1000 ppm soil drench 6 days after warming, evaluated 14 days after warming
[13] = 1000 ppm soil drench 6 days after warming, evaluated 15 days after warming
[14] = 1000 ppm soil drench 6 days after warming, evaluated 16 days after warming
[15] = 1000 ppm soil drench 10 days after warming, evaluated 13 days after warming
[16] = 1000 ppm soil drench 10 days after warming, evaluated 14 days after warming
[17] = 1000 ppm soil drench 10 days after warming, evaluated 15 days after warming
[18] = 1000 ppm soil drench 10 days after warming, evaluated 16 days after warming

(S)-5-(1-hydroxy-2,6,6)-trimethyl-4-oxo-2-cyclohexen-1-yl)-3-methyl-(2 Z,4E)-pentadienoic acid [ABA]
Percentage of broken floral buds [1]: 78 Percentage | Average percent broken buds ([2]; April 24, 1,000 ppm ABA plus 0.5% Brij 98): 8% | Average percent broken buds ([2]; April 24, 1,000 ppm plus 0.5% Pentrabark): 2% | Average percent broken buds ([2]; April 24, 10,000 ppm ABA plus 0.5% Brij 98): 5% | Average percent broken buds ([2]; April 30, 1,000 ppm ABA plus 0.5% Brij 98): 13% | Average percent broken buds ([2]; April 30, 1,000 ppm plus 0.5% Pentrabark): 13% | Average percent broken buds ([2]; April 30, 10,000 ppm ABA plus 0.5% Brij 98): 18% | Average number of broken buds per vine [3, 7]: 0 | Average number of broken buds per vine [3, 8]: 0 | Average number of broken buds per vine [3, 9]: 0.8 | Average number of broken buds per vine [3, 10]: 1.2 | Average number of broken buds per vine ([3]; 1000 ppm soil drench 2 days after warming, evaluated 17 days after warming): 1.7 | Average number of broken buds per vine ([3]; 1000 ppm soil drench 2 days after warming, evaluated 18 days after warming): 1.7 | Average number of broken buds per vine [3, 11]: 0.2 | Average number of broken buds per vine [3, 12]: 0.7 | Average number of broken buds per vine [3, 13]: 1.2 | Average number of broken buds per vine [3, 14]: 1.7 | Average number of broken buds per vine ([3]; 1000 ppm soil drench 6 days after warming, evaluated 17 days after warming): 2.3 | Average number of broken buds per vine ([3]; 1000 ppm soil drench 6 days after warming, evaluated 18 days after warming): 2.5 | Average number of broken buds per vine [3, 15]: 0.5 | Average number of broken buds per vine [3, 16]: 1.8 | Average number of broken buds per vine [3, 17]: 2.3 | Average number of broken buds per vine [3, 18]: 2.3 | Average number of broken buds per vine ([3]; 1000 ppm soil drench 10 days after warming, evaluated 17 days after warming): 2.3 | Average number of broken buds per vine ([3]; 1000 ppm soil drench 10 days after warming, evaluated 18 days after warming): 2.7 | Average rating of bud break (1-6 scale) ([4]; Apr. 23, 2008): 1.0 | Average rating of bud break (1-6 scale) ([4]; April 28): 1.6 | Average rating of bud break (1-6 scale) ([4]; April 30): 1.8 | Average rating of bud break (1-6 scale) ([4]; May 2): 1.8 | Average rating of bud break (1-6 scale) ([4]; May 5): 2.1 | Average rating of bud break (1-6 scale) ([4]; May 7): 2.6 | Average rating of bud break (1-6 scale) ([4]; May 9): 2.9 | Average rating of bud break (1-6 scale) ([4]; May 12): 3.0 | Average rating of bud break (1-6 scale) ([4]; May 14): 3.0 | Average rating of bud break (1-6 scale) ([4]; May 16): 3.4 | Average rating of bud break (1-6 scale) ([4]; May 19): 4.2 | Average rating of bud break (1-6 scale) ([4]; May 21): 4.6 | Average rating of bud break (1-6 scale) ([4]; May 23): 4.9 | Average rating of bud break (1-6 scale) ([4]; May 28): 5.4 | Average number of broken buds per vine ([5]; 1000 ppm soil drench 2, 6 and 10 days after warming, evaluated 13 days after warming): 1.2 | Average number of broken buds per vine ([5]; 1000 ppm soil drench 2, 6 and 10 days after warming, evaluated 14 days after warming): 4.4 | Average number of broken buds per vine ([5]; 1000 ppm soil drench 2, 6 and 10 days after warming, evaluated 15 days after warming): 4.8 | Average number of broken buds per vine ([5]; 1000 ppm soil drench 2, 6 and 10 days after warming, evaluated 16 days after warming): 7.0 | Delay of bud break ([5]; 1000 ppm soil drench 13-16 days before bud break, cultivar not stated (Seyval Blanc and Canadice study)): 3.5 days | Average number of broken buds per vine [5, 7]: 0.4 | Average number of broken buds per vine [5, 8]: 2.2 | Average number of broken buds per vine [5, 9]: 3.6 | Average number of broken buds per vine [5, 10]: 6.8 | Average number of broken buds per vine [5, 11]: 0.2 | Average number of broken buds per vine [5, 12]: 1.6 | Average number of broken buds per vine [5, 13]: 2.6 | Average number of broken buds per vine [5, 14]: 6.8 | Average number of broken buds per vine [5, 15]: 1.8 | Average number of broken buds per vine [5, 16]: 6.0 | Average number of broken buds per vine [5, 17]: 8.6 | Average number of broken buds per vine [5, 18]: 11.4 | Average number of fruit per tree [6]: 55
